Values of other authors as cited in article PMC8288134, “Synthesis, potential antitumor activity, cell cycle analysis, and multitarget mechanisms of novel hydrazones incorporating a 4-methylsulfonylbenzene scaffold: a molecular docking study” (Journal of Enzyme Inhibition and Medicinal Chemistry, 2021).

Key:
MDA-MB-231/ATCC = test system: MDA-MB-231/ATCC; parameters: method as in https://dtp.cancer.gov/dtpstandard/dwindex/index.jsp; details: reference drugs, ref https://dtp.cancer.gov/dtpstandard/dwindex/index.jsp; cited from earlier work
EKVX = test system: EKVX; parameters: method as in https://dtp.cancer.gov/dtpstandard/dwindex/index.jsp; details: reference drugs, ref https://dtp.cancer.gov/dtpstandard/dwindex/index.jsp; cited from earlier work
TK-10 = test system: TK-10; parameters: method as in https://dtp.cancer.gov/dtpstandard/dwindex/index.jsp; details: reference drugs, ref https://dtp.cancer.gov/dtpstandard/dwindex/index.jsp; cited from earlier work
SN12C = test system: SN12C; parameters: method as in https://dtp.cancer.gov/dtpstandard/dwindex/index.jsp; details: reference drugs, ref https://dtp.cancer.gov/dtpstandard/dwindex/index.jsp; cited from earlier work
[1] = test system: NSC lung cancer tumour cell lines; details: cited from earlier work; for GI50: read-out: GI50 (subpanel average), reference drugs, ref https://dtp.cancer.gov/dtpstandard/dwindex/index.jsp; for CC50: read-out: LC50 (subpanel average), reference drugs, ref https://dtp.cancer.gov/dtpstandard/dwindex/index.jsp; for TGI (subpanel average): reference drugs, ref https://dtp.cancer.gov/dtpstandard/dwindex/index.jsp
UACC-62 = test system: UACC-62; parameters: method as in https://dtp.cancer.gov/dtpstandard/dwindex/index.jsp; details: reference drugs, ref https://dtp.cancer.gov/dtpstandard/dwindex/index.jsp; cited from earlier work
PRMI-8226 = test system: PRMI-8226; parameters: method as in https://dtp.cancer.gov/dtpstandard/dwindex/index.jsp; details: reference drugs, ref https://dtp.cancer.gov/dtpstandard/dwindex/index.jsp; cited from earlier work
HT29 = test system: HT29; parameters: method as in https://dtp.cancer.gov/dtpstandard/dwindex/index.jsp; details: reference drugs, ref https://dtp.cancer.gov/dtpstandard/dwindex/index.jsp; cited from earlier work
LOX IMVI = test system: LOX IMVI; parameters: method as in https://dtp.cancer.gov/dtpstandard/dwindex/index.jsp; details: reference drugs, ref https://dtp.cancer.gov/dtpstandard/dwindex/index.jsp; cited from earlier work
ACHN = test system: ACHN; parameters: method as in https://dtp.cancer.gov/dtpstandard/dwindex/index.jsp; details: reference drugs, ref https://dtp.cancer.gov/dtpstandard/dwindex/index.jsp; cited from earlier work
M14 = test system: M14; parameters: method as in https://dtp.cancer.gov/dtpstandard/dwindex/index.jsp; details: reference drugs, ref https://dtp.cancer.gov/dtpstandard/dwindex/index.jsp; cited from earlier work
BT-549 = test system: BT-549; parameters: method as in https://dtp.cancer.gov/dtpstandard/dwindex/index.jsp; details: reference drugs, ref https://dtp.cancer.gov/dtpstandard/dwindex/index.jsp; cited from earlier work
PC-3 = test system: PC-3; parameters: method as in https://dtp.cancer.gov/dtpstandard/dwindex/index.jsp; details: reference drugs, ref https://dtp.cancer.gov/dtpstandard/dwindex/index.jsp; cited from earlier work
[2] = test system: CNS cancer tumour cell lines; details: cited from earlier work; for GI50: read-out: GI50 (subpanel average), reference drugs, ref https://dtp.cancer.gov/dtpstandard/dwindex/index.jsp; for CC50: read-out: LC50 (subpanel average), reference drugs, ref https://dtp.cancer.gov/dtpstandard/dwindex/index.jsp; for TGI (subpanel average): reference drugs, ref https://dtp.cancer.gov/dtpstandard/dwindex/index.jsp
SF-295 = test system: SF-295; parameters: method as in https://dtp.cancer.gov/dtpstandard/dwindex/index.jsp; details: reference drugs, ref https://dtp.cancer.gov/dtpstandard/dwindex/index.jsp; cited from earlier work
786-0 = test system: 786-0; parameters: method as in https://dtp.cancer.gov/dtpstandard/dwindex/index.jsp; details: reference drugs, ref https://dtp.cancer.gov/dtpstandard/dwindex/index.jsp; cited from earlier work
MCF7 = test system: MCF7; parameters: method as in https://dtp.cancer.gov/dtpstandard/dwindex/index.jsp; details: reference drugs, ref https://dtp.cancer.gov/dtpstandard/dwindex/index.jsp; cited from earlier work
[3] = test system: breast cancer tumour cell lines; details: cited from earlier work; for GI50: read-out: GI50 (subpanel average), reference drugs, ref https://dtp.cancer.gov/dtpstandard/dwindex/index.jsp; for TGI (subpanel average): reference drugs, ref https://dtp.cancer.gov/dtpstandard/dwindex/index.jsp
SR = test system: SR; parameters: method as in https://dtp.cancer.gov/dtpstandard/dwindex/index.jsp; details: reference drugs, ref https://dtp.cancer.gov/dtpstandard/dwindex/index.jsp; cited from earlier work
MDA-MB-468 = test system: MDA-MB-468; parameters: method as in https://dtp.cancer.gov/dtpstandard/dwindex/index.jsp; details: reference drugs, ref https://dtp.cancer.gov/dtpstandard/dwindex/index.jsp; cited from earlier work
HOP-92 = test system: HOP-92; parameters: method as in https://dtp.cancer.gov/dtpstandard/dwindex/index.jsp; details: reference drugs, ref https://dtp.cancer.gov/dtpstandard/dwindex/index.jsp; cited from earlier work

Row | SMILES | GI50 (MDA-MB-231/ATCC) | GI50 (EKVX) | GI50 (TK-10) | GI50 (SN12C) | GI50 [1] | TGI (subpanel average) [1] | GI50 (UACC-62) | GI50 (PRMI-8226) | GI50 (HT29) | GI50 (LOX IMVI) | GI50 (ACHN) | GI50 (M14) | GI50 (BT-549) | GI50 (PC-3) | GI50 [2] | TGI (subpanel average) [2] | GI50 (SF-295) | GI50 (786-0) | GI50 (MCF7) | GI50 (SR) | other results
1 | Cc1ccc(-c2cc(C(F)(F)F)nn2-c2ccc(S(N)(=O)=O)cc2)cc1 [Celecoxib, celecoxib] | 15.8 µM | 19.9 µM | 19.9 µM | 15.8 µM | 25.1 µM | 41.93 µM | 15.8 µM | 3.98 µM | 15.8 µM | 19.9 µM | 15.8 µM | 63.1 µM | 19.9 µM | 12.6 µM | 17.2 µM | 31.62 µM | 15.8 µM | 39.8 µM | 15.8 µM | 15.8 µM | CC50 [1]: 67.1 µM; CC50 [2]: 58.8 µM; GI50 [3]: 17.5 µM; TGI (subpanel average) [3]: 34.89 µM
2 | C#Cc1cccc(Nc2ncnc3cc(OCCOC)c(OCCOC)cc23)c1 [Erlotinib, erlotinib] | 6.31 µM | 0.199 µM | 0.251 µM | 1.58 µM | 13.1 µM | 73.76 µM | 3.16 µM | 25.1 µM | 63.1 µM | 6.31 µM | 0.199 µM | 6.31 µM | 31.6 µM | 39.8 µM | 17 µM | 82.11 µM | 15.8 µM | 10 µM | 100 µM | 10 µM | GI50 (MDA-MB-468): 0.126 µM; CC50 [1]: 97.7 µM; CC50 [2]: > 100 µM; GI50 [3]: 24.7 µM; CC50 ([3]; read-out: LC50 (subpanel average), reference drugs, ref https://dtp.cancer.gov/dtpstandard/dwindex/index.jsp): 96.4 µM; GI50 (HOP-92): 3.98 µM
3 | COc1cc2ncnc(Nc3ccc(F)c(Cl)c3)c2cc1OCCCN1CCOCC1 [Gefitinib, gefitinib] | 3.98 µM | – | 0.794 µM | 1.26 µM | 2.05 µM | 13.86 µM | 2 µM | – | 3.98 µM | 3.16 µM | 0.158 µM | 2 µM | 3.16 µM | – | 5.64 µM | 19.62 µM | 10 µM | 3.16 µM | – | 3.16 µM | GI50 (MDA-MB-468): 0.0126 µM; GI50 [3]: 4.67 µM; TGI (subpanel average) [3]: 18.62 µM; GI50 (HOP-92): 0.316 µM
4 | CS(=O)(=O)c1ccc(C(=O)Nc2ccc(Cl)c(-c3ccccn3)c2)c(Cl)c1 [Vismodegib, vismodegib] | 19.9 µM | 39.8 µM | 63.1 µM | 39.8 µM | – | – | 31.6 µM | 31.6 µM | 25.1 µM | 39.8 µM | 39.8 µM | 31.6 µM | – | 25.1 µM | – | – | 31.6 µM | – | 31.6 µM | 39.8 µM | GI50 (MDA-MB-468): 19.9 µM; GI50 (HOP-92): 25.1 µM
